± gives the expanded uncertainty stated by the source.
Legend:
[1] = refractive index (Na D-line) (dimensionless); details: 293.15 K; 101.33 kPa; Liquid; Standard Abbe refractometry
[2] = 293.15 K; 101.33 kPa; Liquid

SMILES	refractive index [1]	mass density [2] [kg/m3]
ClCCCl [1,2-dichloroethane]	1.4445 ± 0.0007	1251 ± 1
CC(=O)O [acetic acid]	1.3713 ± 0.0007	1049.4 ± 0.3
Cc1ccccc1 [toluene]	1.4953 ± 0.0007	862.2 ± 0.5
